Assay results from paper PMC8316002, “Inhibition of Escherichia coli Lipoprotein Diacylglyceryl Transferase Is Insensitive to Resistance Caused by Deletion of Braun’s Lipoprotein” (Journal of Bacteriology, 2021).
Converted amounts (≈) assume the structure as drawn.

Tests used:
WT CFT073 = assay: MIC assay, WT CFT073 (Table 1); format: cell-based, E. coli; conditions: average of two independent experiments, each in duplicates, CLSI
Method: (§1) Unless stated otherwise, E. coli cells were grown in Luria-Bertani (LB) medium (0.5% yeast extract, 1% tryptone, 0.5% NaCl) at 37°C. Where indicated, kanamycin (Kan) was added to culture media at a 50-μg/ml final concentration. MIC assays were performed based on Clinical and Laboratory Standards Institute (CLSI) guidelines. For in vitro growth curves, overnight cultures of WT CFT073, CFT073 Δlgt, and CFT073 Δlgt complemented with lgt from E. coli (lgt^Ec) or P. aeruginosa (lgt^Pa) were grown to mid-exponential phase (optical density at 600 nm [OD600] of 0.6) and then diluted to an OD600 of 0.1 to initiate growth curves. At various times, culture aliquots were diluted and plated in dilutions on LB+Kan agar, and CFU were enumerated in duplicates. Growth of MG1655 inducible deletion strains was measured by culturing in the presence of 2-fold dilutions of arabinose (starting arabinose concentrations for CFT073 and MG1655 inducible deletion strains were 4% and 0.8%, respectively). While […] was sufficient for WT growth of MG1655 Δlgt, 4% arabinose was used for CFT073 Δlgt based on comparing its growth to that of WT CFT073 as measured by CFU. OD600 growth measurements were performed using an EnVision 2101 multilabel reader plate reader (PerkinElmer) linked with Echo liquid handler (Labcyte). For time-kill experiments, bacteria were harvested in mid-exponential phase and treated with 12.5 μM G2824, 3.2 μM globomycin, and 1.6 μM vancomycin. CFU were enumerated at various times posttreatment. Bacterial culture medium containing 2% arabinose was used to induce lpp or lppΔK expression from pBad24 plasmids. Bacterial viability at different time points during the treatment was measured by enumerating CFU. Serum killing assays were carried out as previously described ([17]).

CFT073 Δlgt [1] = assay: MIC assay, CFT073 Δlgt, Lgt 0.25% Ara; format: cell-based, E. coli
Method: as §1

CFT073 Δlgt [2] = assay: MIC assay, CFT073 Δlgt, Lgt 4% Ara; format: cell-based, E. coli; conditions: Escherichia coli
Method: as §1

BW25113 cells, lgt gRNA = assay: CRISPRi knockdown sensitization, lgt gRNA; format: cell-based, E. coli; conditions: 2 μM G2824, 0.05 μM globomycin or 0.016 μM ciprofloxacin; OD600 relative to untreated, versus scr or folA gRNA
From the text: (§2) The two-plasmid bacterial CRISPRi system pdCas9-bacteria_GNE and PGNRNA-bacteria_GNE are based on the AddGene plasmids 44249 and 44251 ([73]), respectively. The plasmid was synthesized in smaller DNA fragments (500 bp to 3 kb) (IDT gBlocks) and assembled by Gibson assembly (NEB) according to the manufacturer’s protocols. Plasmids were confirmed by sequencing (ELIM Bio). gRNAs were designed to target the 5′ end of the gene on the nontemplate strand using Benchling CRISPR software ([74]). gRNAs were cloned into PGNRNA-bacteria using Gibson assembly (NEB) according to the manufacturer’s protocols and sequence confirmed (ELIM Bio).
(§3) Bacterial cultures were grown overnight on LB agar supplemented with carbenicillin (50 μg/ml) and chloramphenicol (12.5 μg/ml) to maintain both plasmids, pdCas9-bacteria and PGNRNA-bacteria with each gRNA as appropriate. Cells were scraped from the plate into fresh medium. The OD600 was measured, and the culture was subsequently diluted to an OD600 0.001 in the presence or absence of G2824, globomycin, or ciprofloxacin. Two hundred microliters was transferred to a 96-well plate (Corning) and monitored for growth by measuring the OD600 (EnVision multimode plate reader; PerkinElmer). All treatments were performed in triplicates. The specificity of CRISPRi downregulation was measured using reverse transcriptase quantitative PCR (RT-qPCR).

BW25113 cells, lspA gRNA = assay: CRISPRi knockdown sensitization, lspA gRNA; format: cell-based, E. coli; conditions: 2 μM G2824, 0.05 μM globomycin or 0.016 μM ciprofloxacin; OD600 relative to untreated, versus scr or folA gRNA
From the text: as §2, §3

Lgt = assay: Lgt-dependent diacylglyceryl modification of peptide substrate (MS, SDS-PAGE); format: biochemical, E. coli

Row | Molecule | MIC (WT CFT073; Escherichia coli) | MIC (CFT073 Δlgt [1]; Escherichia coli) | MIC (CFT073 Δlgt [2]) | other results
1 | CCn1cc(C(=O)O)c(=O)c2cc(F)c(N3CCNCC3)cc21 [Norfloxacin] | 0.4 µM (≈ 0.128 µg/mL) | 0.2 µM (≈ 0.0639 µg/mL) | 0.6 µM (≈ 0.192 µg/mL) | 
2 | Cc1onc(-c2ccccc2)c1C(=O)N[C@@H]1C(=O)N2[C@@H]1SC(C)(C)[C@@H]2C(=O)O [Oxacillin] | > 100 µM | 12.5 µM (≈ 5.02 µg/mL) | > 100 µM | 
3 | CC1(C)S[C@@H]2[C@H](NC(=O)Cc3ccccc3)C(=O)N2[C@H]1C(=O)O [Penicillin G] | > 50 µM | 0.8 µM (≈ 0.268 µg/mL) | > 50 µM | 
4 | CO[C@H]1/C=C/O[C@@]2(C)Oc3c(C)c(O)c4c(O)c(cc(O)c4c3C2=O)NC(=O)/C(C)=C\C=C\[C@H](C)[C@H](O)[C@@H](C)[C@@H](O)[C@@H](C)[C@H](OC(C)=O)[C@@H]1C [Rifamycin] | 6.3 µM (≈ 4.4 µg/mL) | 0.8 µM (≈ 0.558 µg/mL) |  | 
5 | Cc1c(N)nc([C@H](CC(N)=O)NC[C@H](N)C(N)=O)nc1C(=O)N[C@H](C(=O)N[C@H](C)[C@@H](O)[C@H](C)C(=O)N[C@H](C(=O)NCCC1=N[C@@H](c2nc(C(=O)NCCCCN=C(N)N)cs2)CS1)[C@@H](C)O)[C@@H](O[C@@H]1O[C@@H](CO)[C@@H](O)[C@H](O)[C@@H]1O[C@H]1O[C@H](CO)[C@@H](O)[C@H](OC(N)=O)[C@@H]1O)c1cnc[nH]1 [Zeocin] |  |  |  | MIC (WT CFT073): 12.5 µM (≈ 17.8 µg/mL); MIC (CFT073 Δlgt [1]; CFT073 Δlgt, Lgt 0.25% Ara (low Lgt level), average of two independent experiments, each in duplicates, CLSI): 0.8 µM (≈ 1.14 µg/mL)
6 | O=C(O)c1cn(C2CC2)c2cc(N3CCNCC3)c(F)cc2c1=O [ciprofloxacin] |  |  |  | sensitization by decreased lgt expression (BW25113 cells, lgt gRNA): did not lead to increased sensitivity; sensitization by decreased lspA expression (BW25113 cells, lspA gRNA): did not lead to increased sensitivity
7 | MQLNKVLKGLMIALPVMAIAACSSNKN [Pal-IAAC, peptide substrate derived from the Pal lipoprotein] |  |  |  | diacylglyceryl modification by SDS-PAGE (Lgt; SDS-PAGE, Coomassie blue): is Lgt dependent; diacylglyceryl modification, mass addition (Lgt; mass spectrometry, Lgt dependent): 552 Da
